2 compounds from patent EP0317728A2, “Use of 9-(beta-D-arabinofuranosyl) adenine derivatives for the preparation of pharmaceutical compositions for the treatment of aids” (WARNER-LAMBERT COMPANY, priority 1987, dated 1989) can be followed below.

Holding throughout (type): cell-based
The test system of data set [1] is HTLV-III/LAV. In words: Inhibition of cytopathic effect (syncytial giant cell formation) in HTLV-III/LAV infected H9 cells. The conditions noted are these: cytopathic effect (syncytial giant cell formation) on day 7 post infection 50% that in drug-free control cultures, read-out: CPE* 50% Inhibitory Concentrations. As for the experimental part: (§1) The antiviral activity of the compounds of the present invention against the HTLV-III/LAV virus was evaluated by determining the degree of inhibition of cytopathic effect (CPE) and reverse transcriptase (RT) activity of the drug in a subline of H9 cells at various concentrations.
(§2) HTLV-III/LAV inoculum was standardized for reverse transcriptase (RT) activity using purified avian myeloblastosis viral RT (BRL Labs, Gaithersberg, MD) and used to infect polybrene treated H9 cells at 0.02 RT units of HTLV-III/LAV per 2 x 10⁶ cells. The virus was adsorbed for two hours at 37°C and then the cells were washed and resuspended in RPMI-10% fetal bovine serum at 2 x 10⁵ cells/ml and dispersed in 1-ml aliquots into 24-well plates.
Syncytial giant cell formation appeared at 5-6 days post infection, and this cytopathic effect (CPE) was quantitatively measured by dispersing 0.1-ml aliquots into 0.1-ml portions of absolute methanol and enumerating the giant cells microscopically. The inhibition of cytopathic effect by treatment with representative compounds of the present invention is shown in the table, together with the inhibitory effect on reverse transcriptase activity.

The test system of data set [2] is HTLV-III/LAV. In words: Inhibition of reverse transcriptase activity in culture medium of HTLV-III/LAV infected H9 cells. Conditions: reverse transcriptase in the culture medium on day 10 post infection 50% that in drug-free control cultures, read-out: RT** 50% Inhibitory Concentrations. As for the experimental part: as §1, §2
Reverse transcriptase activity (RT) was measured using 1-ml culture aliquots which were clarified at 600 xg for 30 minutes, precipitated in 10% polyethylene glycol-0.13 M NaCl at 4°C for eighteen hours, and centrifuged at 600 xg for sixty minutes. The pellet was dissolved in glycerol-Tris buffer (50% glycerol, 25 mM Tris HCl, pH 7.5, 5 mM dithiothreitol, 15 mM KCl, 0.025% Triton-X, and 0.25 mM EDTA). […] Background counts were determined using poly dA oligo dT₁₂₋₁₈ as template and subtracted from the poly rA dT primer to determine the thymidine incorporation specifically due to reverse transcriptase activity. […]

The subject of a further data set is uninfected H9 cells. Conditions: human, 6 day. As to the method:
as §1

Molecules are shown by their SMILES.

For `Nc1ncnc2c1ncn2[C@@H]1O[C@H](COP(=O)(O)O)[C@@H](O)[C@@H]1O` [9-(β-D-arabinofuranosyl)adenine, 5′-phosphate], the IC50 in the data set with HTLV-III/LAV [1] was 18 µM; with HTLV-III/LAV [2], 11 µM.

As for `Nc1ncnc2c1ncn2[C@@H]1O[C@H](CO)[C@@H](O)[C@@H]1O` [9-(β-D-arabinofuranosyl)adenine], the IC50 amounted to 7 µM in the data set on HTLV-III/LAV [1] (Human immunodeficiency virus 1, 168 h) and 7 µM in the data set with HTLV-III/LAV [2] (Human immunodeficiency virus 1, 240 h). In addition, the “Cell Number*** 50% Inhibitory Concentrations” value with uninfected H9 cells was greater than 100 µM.
